This passage reports IC50 results from patent publication US12459921B2, “Isoindoline compound, preparation method, pharmaceutical composition and use thereof” (SHANGHAI INSTITUTE OF MATERIA MEDICA, CHINESE ACADEMY OF …, priority 2018, dated 2025).

The test system of this test is MM.1S cells. Kind of test: Inhibitory effect on the proliferation of MM.1S, MTS cell viability test. The format is cell-based. The settings on record: Homo sapiens, MM1.S, 168 h, multiple myeloma MM.1S cells, 7 days incubation, read-out: Tumor cell inhibitory activity. Put shortly: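 Viability measured by MTS (OD490 minus OD690 background, 3-4 h) after a 7-day exposure of 20,000 MM.1S cells/well to 5-fold serially diluted compound, 0.2% DMSO final. Inhibition calculated relative to DMSO wells; IC50 curve-fitted, averaged over three repeats.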

In the case of `O=C1CCC(N2Cc3c(OCCCCCCN4CCC5(CC4)OCc4ccc(Cl)cc45)cccc3C2=O)C(=O)N1` (centres unmarked) [Example 150, 3-(4-((6-(6-chloro-3H-spiro[isobenzofuran-1,4′-piperidine]-1′-)hexyl)oxy)-1-oxoisoindoline-2-)piperidine-2,6-dione], the IC50 is less than 100 nM.

With `O=C1CCC(N2Cc3c(CCCCN4CCC5(CC4)OCc4ccc(Cl)cc45)cccc3C2=O)C(=O)N1` (centres unmarked) [Example 151, 3-(4-(4-(6-chloro-3H-spiro[isobenzofuran-1,4-piperidine]-1-)butyl)-1-oxoisoindoline-2-)piperidine-2,6-dione], the IC50 is 100 to 1000 nM.

In the case of `O=C1CCC(N2Cc3c(OCCCCC(=O)N4CCC5(CC4)OCc4ccc(Cl)cc45)cccc3C2=O)C(=O)N1` (centres unmarked) [Example 152, 3-(4-((5-(6-chloro-3H-spiro[isobenzofuran-1,4′-piperidine]-1′-)-5-oxopentyl)oxy)-1-oxoisoindoline-2-)piperidine-2,6-dione], the IC50 was less than 100 nM.

For the molecule `O=C1CCC(N2Cc3c(OCCCC(=O)N4CCC5(CC4)OCc4ccc(Cl)cc45)cccc3C2=O)C(=O)N1` (centres unmarked) [Example 153], the IC50 was 100 to 1000 nM.

As for `O=C1CCC(N2Cc3c(OCCCCNC(=O)N4CCC5(CC4)OCc4ccc(Cl)cc45)cccc3C2=O)C(=O)N1` (centres unmarked) [Example 154, 6-chloro-N-(4-((2-(2,6-dioxopiperidine-3-)-1-oxoisoindoline-4-)-oxy-)butyl)-3H-spiro[isobenzofuran-1,4-piperidine]-1-carboxamide], the IC50 was less than 100 nM.

`O=C1CCC(N2Cc3c(OCCNC(=O)N4CCC5(CC4)OCc4ccc(Cl)cc45)cccc3C2=O)C(=O)N1` (centres unmarked) [Example 155, 6-chloro-N-(2-((2-(2,6-dioxopiperidine-3-)-1-oxoisoindoline-4-)oxy)ethyl)-3H-spiro[isobenzofuran-1,4-piperidine]-1-carboxamide]: the IC50 is less than 100 nM.

In the case of `O=C1CCC(N2Cc3c(CCCCCN4CCC5(CC4)OCc4ccc(F)cc45)cccc3C2=O)C(=O)N1` (centres unmarked) [Example 156, 3-(4-(5-(6-fluoro-3H-spiro[isobenzofuran-1,4′-piperidine]-1′-)pentyl)-1-oxoisoindoline-2-)piperidine-2,6-dione], the IC50 was less than 100 nM.

In the case of `Cc1ccc2c(c1)C1(CCN(CCCCCc3cccc4c3CN(C3CCC(=O)NC3=O)C4=O)CC1)OC2` (centres unmarked) [Example 157, 3-(4-(5-(6-methyl-3H-spiro[isobenzofuran-1,4′-piperidine]-1-)pentyl)-1-oxoisoindoline-2-)piperidine-2,6-dione], the IC50 was less than 100 nM.

Turning to `Cc1ccc(NC(=O)CCCCOc2cccc3c2CN(C2CCC(=O)NC2=O)C3=O)cc1Cl` (centres unmarked) [Example 159, N-(3-chloro-4-methylphenyl)-5-((2-(2,6-dioxopiperidine-3-)-1-oxoisoindoline-4-)oxy)valeramide], the IC50 is less than 100 nM.

As for `Cc1ccc(NC(=O)NCCOc2cccc3c2CN(C2CCC(=O)NC2=O)C3=O)cc1Cl` (centres unmarked) [Example 160, 1-(3-chloro-4-methylphenyl)-3-(2-((2-(2,6-dioxopiperidine-3-)-1-oxoisoindoline-4-)oxy)ethyl)ure], the IC50 was less than 100 nM.

Consider `Cc1ccc(NC(=O)NCCCCOc2cccc3c2CN(C2CCC(=O)NC2=O)C3=O)cc1Cl` (centres unmarked) [Example 162, 1-(3-chloro-4-methylphenyl)-3-(4-((2-(2,6-dioxopiperidine-3-)-1-oxoisoindoline-4-)oxy)butyl)urea], for which the IC50 was less than 100 nM.

Regarding `O=C1CCC(N2Cc3c(OCCNC(=O)Nc4ccc(Cl)c(Cl)c4)cccc3C2=O)C(=O)N1` (centres unmarked) [Example 163], the IC50 was 100 to 1000 nM.

For the molecule `O=C1CCC(N2Cc3c(CCC[C@H](NC(=O)C4CC4)C(=O)NCc4ccccc4)cccc3C2=O)C(=O)N1` (stereo partly drawn) [Example 165, N-((2S)-1-(benzylamino)-5-(2-(2,6-dioxopiperidine-3-)-1-oxoisoindoline-4-)-1-oxopentyl-2-)cyclopropylformamide], the IC50 was less than 100 nM.

Take `CC(=O)N[C@@H](CCCc1cccc2c1CN(C1CCC(=O)NC1=O)C2=O)C(=O)NC(C)(C)C` (stereo partly drawn) [Example 168, (2S)-2-acetylamino-N-tert-butyl-(2-(2,6-dioxopiperidine-3-)-1-oxoisoindoline-4-)pentanamide]: the IC50 is 1000 to 20000 nM.

For the molecule `CC(=O)N[C@@H](CCCc1cccc2c1CN(C1CCC(=O)NC1=O)C2=O)C(=O)N[C@H](C)c1ccccc1` (stereo partly drawn) [Example 169, (2S)-2-acetylamino-5-(2-(2,6-dioxopiperidine-3-)-1-oxoisoindoline-4-)-N—((R)-1-phenethyl)pentanoamide], the IC50 is less than 100 nM.

As to `N[C@@H](CCCc1cccc2c1CN(C1CCC(=O)NC1=O)C2=O)C(=O)Nc1ccccc1-c1ccccn1` (stereo partly drawn) [Example 170, (2S)-2-amino-5-(2-(2,6-dioxopiperidine-3-)-1-oxoisoindoline-4-)-N-(2-(pyridine-2-)phenyl)pentanamide], the IC50 was greater than 20000 nM.

For `CC(=O)N[C@@H](CCCc1cccc2c1CN(C1CCC(=O)NC1=O)C2=O)C(=O)N[C@@H](C)c1ccccc1` (stereo partly drawn) [Example 171, (2S)-2-acetylamino-5-(2-(2,6-dioxopiperidine-3-)-1-oxoisoindoline-4-)-N—((S)-1-phenethyl)pentanamide], the IC50 lay in the range of 1000 to 20000 nM.

As for `N[C@@H](CCCc1cccc2c1CN(C1CCC(=O)NC1=O)C2=O)C(=O)Nc1ccccc1-c1cccnc1` (stereo partly drawn) [Example 172, (2S)-2-amino-5-(2-(2,6-dioxopiperidine-3-)-1-oxoisoindoline-4-)-N-(2-(pyridine-3-)phenyl)pentaneamide], the IC50 is greater than 20000 nM.

As for `N[C@@H](CCCc1cccc2c1CN(C1CCC(=O)NC1=O)C2=O)C(=O)NC12CC3CC(CC(C3)C1)C2` (stereo partly drawn) [Example 174, (2S)—N-((3R,5R,7R)-adamantane-1-)-2-amino-5-(2-(2,6-dioxopiperidine-3-)-1-oxoisoindoline-4-)pentanamide], the IC50 is greater than 20000 nM.

On to `CC(=O)N[C@@H](CCCc1cccc2c1CN(C1CCC(=O)NC1=O)C2=O)C(=O)N[C@H]1CCc2ccccc21` (some centres unmarked) [Example 175], for which the IC50 lay within 100 to 1000 nM.

`N[C@@H](CCCc1cccc2c1CN(C1CCC(=O)NC1=O)C2=O)C(=O)NC1C2CC3CC(C2)CC1C3` (stereo partly drawn) [Example 176, (2S)—N-((1S,3S,5S,7 S)-adamantane-2-)-2-amino-5-(2-(2,6-dioxopiperidine-3-)-1-oxoisoindoline-4-)pentanamide]: the IC50 is greater than 20000 nM.

Turning to `CC(=O)N[C@@H](CCCc1cccc2c1CN(C1CCC(=O)NC1=O)C2=O)C(=O)N[C@@H]1CCc2ccccc21` (stereo partly drawn) [Example 177, (2S)-2-acetylamino-N—((R)-2,3-dihydro-1H-indene-1-)-5-(2-(2,6-dioxopiperidine-3-)-1-oxoisoindoline-4-)pentanamide], the IC50 lay in the range of 100 to 1000 nM.

For `CC(=O)N[C@@H](CCCc1cccc2c1CN(C1CCC(=O)NC1=O)C2=O)C(=O)NCc1ccc(F)cc1F` (stereo partly drawn) [Example 178, (2S)-2-acetylamino-N-(2,4-difluorobenzyl)-5-(2-(2,6-dioxopiperidine-3-)-1-oxoisoindoline-4-)oxoisoindoline], the IC50 lay within 100 to 1000 nM.

Turning to `CC(=O)N[C@@H](CCCc1cccc2c1CN(C1CCC(=O)NC1=O)C2=O)C(=O)N[C@H]1CCCc2ccccc21` (stereo partly drawn) [Example 179, (2S)-2-acetylamino-5-(2-(2,6-dioxopiperidine-3-)-1-oxoisoindoline-4-)-N—((S)-1,2,3,4-tetrahydronaphthyl-1-)pentanamide], the IC50 is less than 100 nM.

As to `COc1ccc(CNC(=O)[C@H](CCCc2cccc3c2CN(C2CCC(=O)NC2=O)C3=O)NC(C)=O)c(OC)c1` (stereo partly drawn) [Example 180, (2S)-2-acetylamino-N-(2,4-dimethoxybenzyl)-5-(2-(2,6-dipiperidine-3-)-1-oxoisoindoline-4-)pentanamide], the IC50 fell in the range of 100 to 1000 nM.

On to `CC(=O)N[C@@H](CCCc1cccc2c1CN(C1CCC(=O)NC1=O)C2=O)C(=O)NC(c1ccccc1)c1ccccc1` (stereo partly drawn) [Example 181, (2S)-2-acetylamino-N-benzhydryl-5-(2-(2,6-dioxopiperidine-3-)-1-oxoisoindoline-4-) pentanamide], for which the IC50 was in the range of 100 to 1000 nM.

Take `Cc1ccc(NC(=O)[C@H](CCCc2cccc3c2CN(C2CCC(=O)NC2=O)C3=O)NC(=O)C(C)C)cc1Cl` (stereo partly drawn) [Example 183, (2S)—N-(3-chloro-4-methylphenyl)-5-(2-(2,6-dioxopiperidine-3-)-1-oxoisoindoline-4-)-2-isobutyrylaminopentanamide]: the IC50 was less than 100 nM.

In the case of `CC(=O)N[C@@H](CCCc1cccc2c1CN(C1CCC(=O)NC1=O)C2=O)C(=O)NCc1cccc(Cl)c1` (stereo partly drawn) [Example 184, (2S)-2-acetylamino-N-(3-chlorobenzyl)-5-(2-(2,6-dioxopiperidine-3-)-1-oxoisoindoline-4-)pentanamide], the IC50 fell in the range of 100 to 1000 nM.

With `Cc1ccc(NC(=O)[C@H](CCCc2cccc3c2CN(C2CCC(=O)NC2=O)C3=O)NC(=O)C2CC2)cc1Cl` (stereo partly drawn) [Example 185, N-((2S)-1-((3-chloro-4-methylphenyl)amino)-5-(2-(2,6-dioxopiperidine-3-)-1-oxoisoindoline-4-)-1-oxopentyl-2-)cyclopropylformamide], the IC50 was less than 100 nM.

In the case of `CC(=O)N[C@@H](CCCc1cccc2c1CN(C1CCC(=O)NC1=O)C2=O)C(=O)NCc1ccc(N2CCCC2)cc1` (stereo partly drawn) [Example 186, (2S)-2-acetylamino-5-(2-(2,6-dioxopiperidine-3-)-1-oxoisoindoline-4-)-N-(4-(pyrrolidine-1-)benzyl)pentanamide], the IC50 fell in the range of 100 to 1000 nM.

For the molecule `Cc1ccc(NC(=O)[C@H](CCCc2cccc3c2CN(C2CCC(=O)NC2=O)C3=O)NC(=O)C2CCC2)cc1Cl` (stereo partly drawn) [Example 187, N-((2S)-1-((3-chloro-4-methylphenyl)amino)-5-(2-(2,6-dioxopiperidine-3-)-1-oxoisoindoline-4-)-1-oxopentyl-2-)cyclobutylcarboxamide], the IC50 is less than 100 nM.

As for `CC(=O)N[C@@H](CCCc1cccc2c1CN(C1CCC(=O)NC1=O)C2=O)C(=O)NC(C)(C)c1ccccc1` (stereo partly drawn) [Example 188, (2S)-2-acetylamino-5-(2-(2,6-dioxopiperidine-3-)-1-oxoisoindoline-4-)-N-(2-phenylpropyl-2-)pentanamide], the IC50 fell in the range of 100 to 1000 nM.
